From US20220389058A1, “PEPTIDES AND COMPOSITIONS FOR USE IN COSMETICS AND MEDICINE” (LIPOTRUE, S.L., priority 2019, published 2022)

Experiments:
[1] = system: recombinant mushroom tyrosinase; test: Tyrosinase activity, L-DOPA/dopachrome absorbance (Example 11); type: biochemical; conditions: 0.05-2.5 mg/mL (Ac-SEQ ID NO: 4-NH2: 0.005-2.5 mg/mL); 30 minutes preincubation, L-DOPA, 2 hours, absorbance 450 nm; vs non-treated control (100%)
Method: Briefly, different concentrations of Ac-SEQ ID NO: 1-NH2 (0.05, 0.25, 0.5 and 2.5 mg/mL), Ac-SEQ ID NO: 2-NH2 (0.05, 0.25, 0.5 and 2.5 mg/mL), Ac-SEQ ID NO: 3-NH2 (0.05, 0.25, 0.5 and 2.5 mg/mL) and Ac-SEQ ID NO: 4-NH2 (0.005, 0.025, 0.05, 0.25, 0.5 and 2.5 mg/mL) and the positive control kojic acid (400 and 800 μM) were incubated with recombinant mushroom tyrosinase for 30 minutes before the addition of L-DOPA (L-3,4 dihidroxiphenilalanine, 2.5 mg/mL in PBS). After 2 hours' reaction at room temperature, the absorbance at 450 nm of each well was determined using the microplate reader Multiskan FC (Thermo Fisher Scientific, Mass., USA), which is directly proportional to the amount of dopachrome in the reaction mixture.

[2] = Lipid peroxidation, TBARS assay (Example 13); type: biochemical; conditions: 0.01, 0.05, 0.1 and 0.5 mg/mL; 2 hours at 37° C.; vs negative control
Method: Briefly, Trolox (positive control), 0.01, 0.05, 0.1 and 0.5 mg/mL of peptide Ac-SEQ ID NO: 1-NH2 in presence of small unilamellar vesicles of egg yolk phosphatidylcholine (EYPC), a substrate for lipid peroxidation were incubated for 2 hours at 37° C. in the presence of thiobarbituric acid (TBA). A fluorimetric method was used to evaluate the % of lipid peroxidation compared to the negative control (sample only with small unilamellar vesicles of egg yolk phosphatidylcholine).

[3] = Protein glycation (AGE formation), fluorimetric (Example 14); type: biochemical; conditions: 0.01, 0.05, 0.1 and 0.5 mg/mL; 72 hours at 37° C.; vs negative control
Method: Briefly, 0.01, 0.05, 0.1 and 0.5 mg/mL of peptide Ac-SEQ ID NO: 1-NH2 were mixed together with a glycation agent and its corresponding substrate. Samples were incubated for 72 hours at 37° C. A fluorimetric method was used to evaluate the % of protein glycation compared to the negative control (sample only with sugar substrate).

[4] = system: human skin explants; test: Ex vivo methylglyoxal-induced glycation, CML immunostaining (Example 14); conditions: cream containing 1% (w/v) Ac-SEQ ID NO: 1-NH2, topical 2 mg/cm^2; methylglyoxal 500 μM; after 9 days of culture
Method: Briefly, human skin explants from a person were kept in survival in BEM culture medium at 37° C. in a humid, 5% CO2 atmosphere. […] Explants were collected at each timepoint and cut in two parts. Half was fixed in buffered formalin solution and half was frozen at −80° C.
After fixation for 24 hours in buffered formalin, the samples were dehydrated and impregnated in paraffin. 5-μm-thick sections were made using a Leica RM 2125 Minot-type microtome, and the sections were mounted on Superfrost® histological glass slides.

[5] = system: emilin-1; test: Emilin-1 protein expression, immunofluorescence in HDLMVEC (Example 18); type: cell-based, Human
Method: HDLMVEC were cultured on coverslips in Microvascular Endothelial Cell Growth (MECG) Medium at a density of 16.000 cell/cm^2 and 37° C. in a humidified atmosphere with 5% CO2. When cell confluence was around 70-80%, cells were treated with 0.05 mg/mL Ac-SEQ ID NO:1-NH2 in MECG medium for 24 hours. Then, cells were washed twice with PBS, fixed with 4% formaldehyde and permeabilized with Triton 0.2%. Next, samples were blocked for 1 hour with PBS/BSA 5%, in order to avoid nonspecific antibody binding. Emilin-1 was stained with 1:50 Emilin-1 antibody in PBS/BSA 1%, during 1.5 hours at room temperature. After proper washing with PBS, actin was stained with 50 μg/mL Phalloidin during 1 hour at room temperature. Then, cells were washed with PBS and incubated with 5 μg/mL of the secondary antibody Goat anti-Rabbit IgG for 1 hour at room temperature. Finally, coverslips were mounted using Vectashield with DAPI, that stains nuclei, and samples were kept protected from light at 4° C. until microscopic images were acquired. […]
Images were analyzed using Image J software. Shortly, threshold was adjusted to select emilin-1 staining and mean fluorescent was measured. The number of cells was counted using the DAPI staining. […]
Statistical data analysis was performed using Student t-test by comparison of fluorescence from treated cells vs non-treated cells, *, p<0.05; **, p<0.01 and ***, p<0.001.

[6] = system: integrin α9β1 (Itg9); test: Integrin α9β1 protein expression, immunofluorescence in HDLMVEC (Example 19); type: cell-based, Human
Method: HDLMVEC were cultured on coverslips in Microvascular Endothelial Cell Growth (MECG) Medium at a density of 16.000 cell/cm^2 and 37° C. in a humidified atmosphere with 5% CO2.
When cell confluence was around 70-80%, cells were treated with 0.05 mg/mL Ac-SEQ ID NO:1-NH2 in MECG medium for 24 hours. Then, cells were washed twice with PBS, fixed with 4% formaldehyde and permeabilized with Triton 0.2%. Next, samples were blocked for 1 hour with PBS/BSA 5%, in order to avoid nonspecific antibody binding.
Itg9 was stained with 1:50 anti-Itg9 antibody in PBS/BSA 1%, during 1.5 hours at room temperature. After proper washing with PBS, actin was stained with 50 μg/mL Phalloidin during 1 hour at room temperature. Then, cells were washed with PBS and incubated with 5 μg/mL of the secondary antibody Goat anti-Rabbit IgG for 1 hour at room temperature. Finally, coverslips were mounted using Vectashield with DAPI, that stains nuclei, and samples were kept protected from light at 4° C. until microscopic images were acquired.
Microscopic images were acquired using 10×objective. […]
Images were analyzed using Image J software. Shortly, threshold was adjusted to select Itg9 staining and mean fluorescent was measured. The number of cells was counted using the DAPI staining. […]

[7] = system: Human Epidermal Keratinocytes (HEKa); test: Innate antimicrobial immunity related genes, RT-qPCR in HEKa (Example 20); type: cell-based; conditions: 0.01 mg/mL, 6 h
[8] = 0.05 mg/mL, 24 hours, basal = 100.00

## Ac-Arg-Arg-Gln-Met-Arg-Glu-NH2 (Ac-RRQMRE-NH2) [Ac-SEQ ID NO: 1-NH2]
[1]
  tyrosinase activity: inhibited tyrosinase in all the concentrations tested
[2]
  lipid peroxidation (TBARS): able to protect from lipid peroxidation
[3]
  protein glycation: able to protect from protein glycation
[4]
  decrease in CML signal when compared with MG-exposed untreated explants: −73%
[5]; [8]
  % Mean of emilin-1 compared to untreated cells: 170.88%
[5]; 24 h of treatment
  increase of the expression of emilin-1 when compared with untreated cells: more than 70%
[6]; [8]
  % Mean of integrin α9β1 (Itg9) compared to untreated cells: 153.56%
[6]; 24 hours of treatment
  increase of the expression of Itg9 when compared with the untreated cells: > 50%
[7]
  DEFB1 Fold change vs. Basal: 1.31 Fold change
  DEFB4A Fold change vs. Basal: 1.58 Fold change
  IRF1 Fold change vs. Basal: 1.25 Fold change
  IRF3 Fold change vs. Basal: 1.54 Fold change
  ISG15 Fold change vs. Basal: 1.38 Fold change
  MX1 Fold change vs. Basal: 1.93 Fold change
  OAS2 Fold change vs. Basal: 1.39 Fold change
  S100A7 Fold change vs. Basal: 2.04 Fold change
